What follows are compounds tested against Transient receptor potential cation channel subfamily V member 1 (Homo sapiens, UniProt Q8NER1) (assay: Ca2+ Influx Functional Assay for the Determination of in Vitro Activity.). Settings: not given.
Description: The functional antagonist activity of compounds at the TRPV1 receptor was determined with a Ca2+ influx assay by measuring the effect on capsaicin (0.05 uM) evoked increase in intracellular Ca2+ levels using cells stably expressing recombinant human TRPV1. All compounds were tested over an 11-point half-log concentration range. The fluorescent Ca2+ chelating dye fluo-4 was used as an indicator of the relative levels of Ca2+ in a 96-well format using a fluorescence imaging plate reader. Fluorescence readings were made at 1-5 s intervals over the 240 s course of the experimental run. The peak increase in relative fluorescence units was calculated and expressed as a percentage of the 0.05 uM capsaicin (control) response. Curve fits of the data were solved using a four-parameter logistic Hill equation in GraphPad Prism, and IC50 values were calculated.

Sequence of Transient receptor potential cation channel subfamily V member 1 (Q8NER1 whole entry): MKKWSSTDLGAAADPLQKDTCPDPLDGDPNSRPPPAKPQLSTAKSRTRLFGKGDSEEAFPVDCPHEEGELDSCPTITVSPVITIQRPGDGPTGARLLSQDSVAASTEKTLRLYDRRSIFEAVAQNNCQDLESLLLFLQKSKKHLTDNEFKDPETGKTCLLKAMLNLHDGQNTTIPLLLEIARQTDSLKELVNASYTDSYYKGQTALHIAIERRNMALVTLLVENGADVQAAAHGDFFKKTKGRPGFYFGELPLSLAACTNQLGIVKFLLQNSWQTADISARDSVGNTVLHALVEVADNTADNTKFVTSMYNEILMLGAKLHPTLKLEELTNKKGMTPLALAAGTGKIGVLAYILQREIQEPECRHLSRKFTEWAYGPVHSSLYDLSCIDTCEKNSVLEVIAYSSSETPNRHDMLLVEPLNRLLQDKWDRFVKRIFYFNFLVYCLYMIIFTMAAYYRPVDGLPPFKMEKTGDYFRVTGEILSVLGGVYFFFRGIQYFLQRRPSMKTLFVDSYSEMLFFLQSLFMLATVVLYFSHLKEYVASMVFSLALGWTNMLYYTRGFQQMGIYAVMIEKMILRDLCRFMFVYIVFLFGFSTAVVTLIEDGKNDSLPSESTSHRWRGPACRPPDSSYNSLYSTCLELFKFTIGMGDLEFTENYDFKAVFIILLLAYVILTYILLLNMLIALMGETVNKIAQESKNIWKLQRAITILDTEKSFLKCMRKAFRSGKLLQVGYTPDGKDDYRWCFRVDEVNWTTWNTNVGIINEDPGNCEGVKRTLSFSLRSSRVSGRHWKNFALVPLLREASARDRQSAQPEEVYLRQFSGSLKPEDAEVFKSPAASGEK

| Structure (SMILES) | EC50 [nM] |
| --- | --- |
| O=C1C[C@H]2CC[C@@H](C1)N2c1cc(F)c(CNC(=O)Nc2cccc3[nH]ncc23)cc1F [1-({2,5-difluoro-4-[(1R,5S)-3-oxo-8-azabicyclo[3.2.1]octan-8-yl]phenyl}methyl)-3-1H-indazol-4-ylurea] | 157 |
| O=C(NCc1ccc(N2[C@@H]3CCC[C@H]2CC3)c(F)c1F)Nc1cccc2[nH]ncc12 [1-({4-[(1R,5S)-8-azabicyclo[3.2.1]octan-8-yl]-2,3-difluorophenyl}methyl)-3-1H-indazol-4-ylurea] | 25.5 |
| O=C(NCc1ccc(N2[C@@H]3CCC[C@H]2CC3)c(Cl)c1)Nc1cccc2[nH]ncc12 [1-({4-[(1R,5S)-8-azabicyclo[3.2.1]octan-8-yl]-3-chlorophenyl}methyl)-3-1H-indazol-4-ylurea] | 20.4 |
| CC(C)c1cc(N2[C@@H]3CCC[C@H]2CC3)ccc1CNC(=O)Nc1cccc2[nH]ncc12 [1-({4-[(1R,5S)-8-azabicyclo[3.2.1]octan-8-yl]-2-(propan-2-yl)phenyl}methyl)-3-1H-indazol-4-ylurea] | 35.3 |
| O=C(NCc1cc(F)c(N2[C@@H]3CC[C@H]2CC2(C3)OCCO2)cc1F)Nc1cccc2[nH]ncc12 [1-({4-[(1S,5R)-8-azaspiro[bicyclo[3.2.1]octane-3,2'-[1,3]dioxolane]]-2,5-difluorophenyl}methyl)-3-1H-indazol-4-ylurea] | 82 |
| Cn1ncc2c(NC(=O)NCc3ccc(N4[C@@H]5CCC[C@H]4CC5)cc3Cc3ccccc3)cccc21 [1-({4-[(1R,5S)-8-azabicyclo[3.2.1]octan-8-yl]-2-benzylphenyl}methyl)-3-(1-methyl-1H-indazol-4-yl)urea] | 19 |
| O=C(NCc1cc(F)c(N2[C@@H]3CCC[C@H]2CC3)c(F)c1)Nc1cccc2[nH]ncc12 [1-({4-[(1R,5S)-8-azabicyclo[3.2.1]octan-8-yl]-3,5-difluorophenyl}methyl)-3-1H-indazol-4-ylurea] | 12.6 |
| O=C(NCc1ccc(N2[C@@H]3CCC[C@H]2CC3)c(C(F)(F)F)c1)Nc1cccc2[nH]ncc12 [1-({4-[(1R,5S)-8-azabicyclo[3.2.1]octan-8-yl]-3-(trifluoromethyl)phenyl}methyl)-3-1H-indazol-4-ylurea] | 26.9 |
| Cc1cc(CNC(=O)Nc2cccc3[nH]ncc23)ccc1N1[C@@H]2CCC[C@H]1CC2 [1-({4-[(1R,5S)-8-azabicyclo[3.2.1]octan-8-yl]-3-methylphenyl}methyl)-3-1H-indazol-4-ylurea] | 19.8 |
| CCN1CCc2cc(CNC(=O)Nc3cccc4[nH]ncc34)ccc21 [1-[(1-ethyl-2,3-dihydro-1H-indol-5-yl)methyl]-3-1H-indazol-4-ylurea] | 285 |
| Cc1cc(N2[C@@H]3CCC[C@H]2CC3)ccc1CNC(=O)Nc1cccc2[nH]ncc12 [1-({4-[(1R,5S)-8-azabicyclo[3.2.1]octan-8-yl]-2-methylphenyl}methyl)-3-1H-indazol-4-ylurea] | 29 |
| Cn1c2ccccc2c2cc(CNC(=O)Nc3cccc4[nH]ncc34)ccc21 [3-1H-indazol-4-yl-1-[(9-methyl-9H-carbazol-3-yl)methyl]urea] | 902 |
| O=C(NCc1ccc(N2[C@@H]3CCC[C@H]2CC3)c(Br)c1)Nc1cccc2[nH]ncc12 [1-({4-[(1R,5S)-8-azabicyclo[3.2.1]octan-8-yl]-3-bromophenyl}methyl)-3-1H-indazol-4-ylurea] | 43.2 |
| CC(C)(C)CCc1cc(N2[C@@H]3CCC[C@H]2CC3)ccc1CNC(=O)Nc1cccc2[nH]ncc12 [1-({4-[(1R,5S)-8-azabicyclo[3.2.1]octan-8-yl]-2-(3,3-dimethylbutyl)phenyl}methyl)-3-1H-indazol-4-ylurea] | 10.3 |
| O=C(NCc1ccc(N2[C@@H]3CCC[C@H]2CC3)c(F)c1)Nc1cccc2[nH]ncc12 [1-({4-[(1R,5S)-8-azabicyclo[3.2.1]octan-8-yl]-3-fluorophenyl}methyl)-3-1H-indazol-4-ylurea] | 14.8 |

Same assay, conditions: pH 7.4; 22 °C

| Structure (SMILES) | EC50 [nM] |
| --- | --- |
| O=C(NCc1ccc(N2[C@@H]3CCC[C@H]2CC3)cc1)Nc1cccc2[nH]ncc12 [1-({4-[(1R,5S)-8-azabicyclo[3.2.1]octan-8-yl]phenyl}methyl)-3-1H-indazol-4-ylurea] | 18 |
| O=C(NCc1ccc(N2CCOCC2)cc1)Nc1cccc2cnc(Cl)cc12 [1-(3-chloroisoquinolin-5-yl)-3-{[4-(morpholin-4-yl)phenyl]methyl}urea] | 156 |
| O=C(NCc1ccc(N2[C@@H]3CCC[C@H]2CC3)cc1)Nc1cccc2cnccc12 [3-({4-[(1R,5S)-8-azabicyclo[3.2.1]octan-8-yl]phenyl}methyl)-1-isoquinolin-5-ylurea] | 3.3 |
| CC1CN(c2ccc(CNC(=O)Nc3cccc4cnccc34)cc2)CC(C)O1 (stereo not given) [3-{[4-(2,6-dimethylmorpholin-4-yl)phenyl]methyl}-1-isoquinolin-5-ylurea] | 258 |
| O=C(NCc1ccc(N2[C@@H]3CCC[C@H]2CC3)cc1C(F)(F)F)Nc1cccc2[nH]ncc12 [1-({4-[(1R,5S)-8-azabicyclo[3.2.1]octan-8-yl]-2-(trifluoromethyl)phenyl}methyl)-3-1H-indazol-4-ylurea] | 54.5 |
| Nc1cc2c(NC(=O)NCc3ccc(N4CCCCCC4)cc3)cccc2cn1 [1-(3-aminoisoquinolin-5-yl)-3-{[4-(azepan-1-yl)phenyl]methyl}urea] | 9.8 |
| O=C(NCc1cc(F)c(N2CCCCCC2)c(F)c1)Nc1cccc2[nH]ncc12 [1-{[4-(azepan-1-yl)-3,5-difluorophenyl]methyl}-3-1H-indazol-4-ylurea] | 39.3 |
| O=C(NCc1ccc(C(F)(F)F)cc1)Nc1cccc2cnccc12 [1-isoquinolin-5-yl-3-{[4-(trifluoromethyl)phenyl]methyl}urea] | 2.1 |
| O=C(NCc1ccc(N2CCCCCC2)cc1)Nc1cccc2cnccc12 [3-{[4-(azepan-1-yl)phenyl]methyl}-1-isoquinolin-5-ylurea] | 3.3 |
| CN(C)c1ccc(CNC(=O)Nc2cccc3cnccc23)cc1 [3-{[4-(dimethylamino)phenyl]methyl}-1-isoquinolin-5-ylurea] | 157 |
| O=C(NCc1ccc(N2CCCCCC2)c(C(F)(F)F)c1)Nc1cccc2cnccc12 [3-{[4-(azepan-1-yl)-3-(trifluoromethyl)phenyl]methyl}-1-isoquinolin-5-ylurea] | 4.6 |
| O=C(NCc1ccc(N2CCCCCC2)cc1C(F)(F)F)Nc1cccc2[nH]ncc12 [1-{[4-(azepan-1-yl)-2-(trifluoromethyl)phenyl]methyl}-3-1H-indazol-4-ylurea] | 133 |
| O=C(NCc1ccc(N2[C@@H]3CCC[C@H]2CC3)cc1Cl)Nc1cccc2[nH]ncc12 [1-({4-[(1R,5S)-8-azabicyclo[3.2.1]octan-8-yl]-2-chlorophenyl}methyl)-3-1H-indazol-4-ylurea] | 58.8 |
| O=C(NCc1ccc(N2CCCCCCC2)cc1)Nc1cccc2cnccc12 [3-{[4-(azocan-1-yl)phenyl]methyl}-1-isoquinolin-5-ylurea] | 4.7 |
| Cc1cc2c(NC(=O)NCc3ccc(N4Cc5ccccc5C4)c(F)c3)cccc2cn1 [3-{[4-(2,3-dihydro-1H-isoindol-2-yl)-3-fluorophenyl]methyl}-1-(3-methylisoquinolin-5-yl)urea] | 7360 |
| O=C(NCc1ccc(N2CCCCCC2)cc1Cl)Nc1cccc2[nH]ncc12 [1-{[4-(azepan-1-yl)-2-chlorophenyl]methyl}-3-1H-indazol-4-ylurea] | 190 |
| O=C(NCc1ccc(N2CCCCCC2)c(F)c1)Nc1cccc2[nH]ncc12 [1-{[4-(azepan-1-yl)-3-fluorophenyl]methyl}-3-1H-indazol-4-ylurea] | 14.2 |
| O=C(NCc1ccc(N2CCCCCC2)cc1Cl)Nc1cccc2cnccc12 [3-{[4-(azepan-1-yl)-2-chlorophenyl]methyl}-1-isoquinolin-5-ylurea] | 5.2 |
| O=C(NCc1cc(F)c(N2CCOCC2)c(F)c1)Nc1cccc2cnccc12 [3-{[3,5-difluoro-4-(morpholin-4-yl)phenyl]methyl}-1-isoquinolin-5-ylurea] | 9.3 |
| O=C(NCc1ccc(N2CCCCC2)cc1)Nc1cccc2cnccc12 [1-isoquinolin-5-yl-3-{[4-(piperidin-1-yl)phenyl]methyl}urea] | 7.3 |
| O=C(NCc1ccc(N2CCCCCC2)c(F)c1)Nc1cccc2cnccc12 [3-{[4-(azepan-1-yl)-3-fluorophenyl]methyl}-1-isoquinolin-5-ylurea] | 2.8 |
| CC1CCN(c2ccc(CNC(=O)Nc3cccc4cnccc34)cc2)CC1 [1-isoquinolin-5-yl-3-{[4-(4-methylpiperidin-1-yl)phenyl]methyl}urea] | 9.3 |
| O=C(NCc1ccc(N2CCOCC2)cc1)Nc1cccc2cnccc12 [1-isoquinolin-5-yl-3-{[4-(morpholin-4-yl)phenyl]methyl}urea] | 91 |
| O=C(NCc1ccc(N2CCCCCC2)cc1C(F)(F)F)Nc1cccc2cnccc12 [3-{[4-(azepan-1-yl)-2-(trifluoromethyl)phenyl]methyl}-1-isoquinolin-5-ylurea] | 5.7 |
| Cc1cc2c(NC(=O)NCc3ccc(N4CCCCCC4)cc3)cccc2cn1 [3-{[4-(azepan-1-yl)phenyl]methyl}-1-(3-methylisoquinolin-5-yl)urea] | 3.8 |

Reference: BindingDB's records for doi:10.1021/jm070276i (Abbott Laboratories, 2007)
